Reference: the supplement of paper PMC10307832

Tests used:
Assay in all cases: relative viability (nuclei count vs DMSO), 5 days (fraction); higher = more cells survive
NCI-H23 = system: NCI-H23
Method in brief: (§1)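 Lung cancer cell lines, seeded in 1536-well plates, were treated the following day by pin tool with a single drug or with five library-drug doses (not always all listed) in √10 steps on top of a fixed anchor-drug dose. Cells were fixed and nuclei stained in one step after 5 days, and nuclei were counted. Relative viability is the nuclei count for treated wells divided by that for vehicle wells, reported as medians of duplicate plates.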

COR-L 105 = system: COR-L 105
Method in brief: as §1

H3255 = system: H3255
Method in brief: as §1

NCI-H520 = system: NCI-H520
Method in brief: as §1

LK-2 = system: LK-2
Method in brief: as §1

NCI-H596 = system: NCI-H596
Method in brief: as §1

NCI-H441 = system: NCI-H441
Method in brief: as §1

PC-3 [JPC-3] = system: PC-3 [JPC-3]
Method in brief: as §1

ChaGo-K-1 = system: ChaGo-K-1
Method in brief: as §1

SW 900 = system: SW 900
Method in brief: as §1

NCI-H1975 = system: NCI-H1975
Method in brief: as §1

NCI-H1734 = system: NCI-H1734
Method in brief: as §1

HCC-366 = system: HCC-366
Method in brief: as §1

LOU-NH91 = system: LOU-NH91
Method in brief: as §1

A-427 = system: A-427
Method in brief: as §1

SK-MES-1 = system: SK-MES-1
Method in brief: as §1

EMC-BAC-2 = system: EMC-BAC-2
Method in brief: as §1

EKVX = system: EKVX
Method in brief: as §1

NCI-H1666 = system: NCI-H1666
Method in brief: as §1

NCI-H1755 = system: NCI-H1755
Method in brief: as §1

NCI-H2170 = system: NCI-H2170
Method in brief: as §1

CCN(CC)CCCCNc1ncc2cc(-c3cc(OC)cc(OC)c3)c(NC(=O)NC(C)(C)C)nc2n1 + Cc1cc(Nc2cc(N3CCN(C)CC3)nc(Sc3ccc(NC(=O)C4CC4)cc3)n2)n[nH]1 [Tozasertib] (partner 0.1 µM)
relative viability (NCI-H23; first compound 0.01 µM): 0.408 | relative viability (NCI-H23; first compound 0.03162 µM): 0.405 | relative viability (NCI-H23; first compound 0.1 µM): 0.352 | relative viability (NCI-H23; first compound 0.3162 µM): 0.301 | relative viability (NCI-H23; first compound 1 µM): 0.339 | relative viability (COR-L 105; first compound 0.01 µM): 0.366 | relative viability (COR-L 105; first compound 0.03162 µM): 0.345 | relative viability (COR-L 105; first compound 0.1 µM): 0.374 | relative viability (COR-L 105; first compound 0.3162 µM): 0.354 | relative viability (COR-L 105; first compound 1 µM): 0.354 | relative viability (H3255; first compound 0.01 µM): 0.91 | relative viability (H3255; first compound 0.03162 µM): 0.654 | relative viability (H3255; first compound 0.1 µM): 0.544 | relative viability (H3255; first compound 0.3162 µM): 0.607 | relative viability (H3255; first compound 1 µM): 0.585 | relative viability (NCI-H520; first compound 0.01 µM): 0.383 | relative viability (NCI-H520; first compound 0.03162 µM): 0.452 | relative viability (NCI-H520; first compound 0.1 µM): 0.486 | relative viability (NCI-H520; first compound 0.3162 µM): 0.388 | relative viability (NCI-H520; first compound 1 µM): 0.261 | relative viability (LK-2; first compound 0.01 µM): 0.168 | relative viability (LK-2; first compound 0.03162 µM): 0.196 | relative viability (LK-2; first compound 0.1 µM): 0.184 | relative viability (LK-2; first compound 0.3162 µM): 0.213 | relative viability (LK-2; first compound 1 µM): 0.159 | relative viability (NCI-H596; first compound 0.01 µM): 0.911 | relative viability (NCI-H596; first compound 0.03162 µM): 0.903 | relative viability (NCI-H596; first compound 0.1 µM): 1.05 | relative viability (NCI-H596; first compound 0.3162 µM): 0.828 | relative viability (NCI-H596; first compound 1 µM): 0.747 | relative viability (NCI-H441; first compound 0.01 µM): 0.544 | relative viability (NCI-H441; first compound 0.03162 µM): 0.714 | relative viability (NCI-H441; first compound 0.1 µM): 0.821 | relative viability (NCI-H441; first compound 0.3162 µM): 0.616 | relative viability (NCI-H441; first compound 1 µM): 0.597 | relative viability (PC-3 [JPC-3]; first compound 0.01 µM): 0.988 | relative viability (PC-3 [JPC-3]; first compound 0.03162 µM): 0.958 | relative viability (PC-3 [JPC-3]; first compound 0.1 µM): 1.09 | relative viability (PC-3 [JPC-3]; first compound 0.3162 µM): 0.892 | relative viability (PC-3 [JPC-3]; first compound 1 µM): 0.632 | relative viability (ChaGo-K-1; first compound 0.01 µM): 0.233 | relative viability (ChaGo-K-1; first compound 0.03162 µM): 0.213 | relative viability (ChaGo-K-1; first compound 0.1 µM): 0.223 | relative viability (ChaGo-K-1; first compound 0.3162 µM): 0.242 | relative viability (ChaGo-K-1; first compound 1 µM): 0.219 | relative viability (SW 900; first compound 0.01 µM): 0.662 | relative viability (SW 900; first compound 0.03162 µM): 0.573 | relative viability (SW 900; first compound 0.3162 µM): 0.451 | relative viability (SW 900; first compound 1 µM): 0.382 | relative viability (NCI-H1975; first compound 0.01 µM): 0.876 | relative viability (NCI-H1975; first compound 0.03162 µM): 0.859 | relative viability (NCI-H1975; first compound 0.1 µM): 1.1 | relative viability (NCI-H1975; first compound 0.3162 µM): 0.992 | relative viability (NCI-H1975; first compound 1 µM): 0.407 | relative viability (NCI-H1734; first compound 0.01 µM): 0.136 | relative viability (NCI-H1734; first compound 0.03162 µM): 0.257 | relative viability (NCI-H1734; first compound 0.1 µM): 0.3 | relative viability (NCI-H1734; first compound 0.3162 µM): 0.244 | relative viability (NCI-H1734; first compound 1 µM): 0.243 | relative viability (HCC-366; first compound 0.01 µM): 0.112 | relative viability (HCC-366; first compound 0.03162 µM): 0.135 | relative viability (HCC-366; first compound 0.1 µM): 0.102 | relative viability (HCC-366; first compound 0.3162 µM): 0.107 | relative viability (HCC-366; first compound 1 µM): 0.0931 | relative viability (LOU-NH91; first compound 0.01 µM): 0.613 | relative viability (LOU-NH91; first compound 0.03162 µM): 0.684 | relative viability (LOU-NH91; first compound 0.1 µM): 0.697 | relative viability (LOU-NH91; first compound 0.3162 µM): 0.677 | relative viability (LOU-NH91; first compound 1 µM): 0.574 | relative viability (A-427; first compound 0.01 µM): 0.199 | relative viability (A-427; first compound 0.03162 µM): 0.206 | relative viability (A-427; first compound 0.1 µM): 0.202 | relative viability (A-427; first compound 0.3162 µM): 0.174 | relative viability (A-427; first compound 1 µM): 0.182 | relative viability (SK-MES-1; first compound 0.01 µM): 1.01 | relative viability (SK-MES-1; first compound 0.03162 µM): 1.02 | relative viability (SK-MES-1; first compound 0.1 µM): 1.1 | relative viability (SK-MES-1; first compound 0.3162 µM): 1.03 | relative viability (SK-MES-1; first compound 1 µM): 0.879 | relative viability (EMC-BAC-2; first compound 0.01 µM): 0.162 | relative viability (EMC-BAC-2; first compound 0.03162 µM): 0.292 | relative viability (EMC-BAC-2; first compound 0.1 µM): 0.277 | relative viability (EMC-BAC-2; first compound 0.3162 µM): 0.31 | relative viability (EMC-BAC-2; first compound 1 µM): 0.26 | relative viability (EKVX; first compound 0.01 µM): 0.475 | relative viability (EKVX; first compound 0.03162 µM): 0.383 | relative viability (EKVX; first compound 0.1 µM): 0.407 | relative viability (EKVX; first compound 0.3162 µM): 0.558 | relative viability (EKVX; first compound 1 µM): 0.366 | relative viability (NCI-H1666; first compound 0.01 µM): 0.529 | relative viability (NCI-H1666; first compound 0.03162 µM): 0.635 | relative viability (NCI-H1666; first compound 0.1 µM): 0.673 | relative viability (NCI-H1666; first compound 0.3162 µM): 0.672 | relative viability (NCI-H1666; first compound 1 µM): 0.614 | relative viability (NCI-H1755; first compound 0.01 µM): 0.624 | relative viability (NCI-H1755; first compound 0.03162 µM): 0.61 | relative viability (NCI-H1755; first compound 0.1 µM): 0.607 | relative viability (NCI-H1755; first compound 0.3162 µM): 0.622 | relative viability (NCI-H1755; first compound 1 µM): 0.535 | relative viability (NCI-H2170; first compound 0.01 µM): 0.619 | relative viability (NCI-H2170; first compound 0.03162 µM): 0.77 | relative viability (NCI-H2170; first compound 0.1 µM): 0.747 | relative viability (NCI-H2170; first compound 0.3162 µM): 0.755 | relative viability (NCI-H2170; first compound 1 µM): 0.65
